According to US20100298141A1, “SUBSTITUTED PYRIDINE N-OXIDE HERBICIDES” (E. I. DU PONT DE NEMOURS AND COMPANY, priority 2007, published 2010):

Legend:
Test in all cases: Test F preemergence test
[1] = tested on: prickly sida; format: in vivo, Sida spinosa; details: scale 0 to 100
Source text: (§1) Seeds of plant species selected from bermudagrass (Cynodon dactylon), Surinam grass (Brachiaria decumbens), large crabgrass (Digitaria sanguinalis), green foxtail (Setaria viridis), goosegrass (Eleusine indica), johnsongrass (Sorghum halepense), kochia (Kochia scoparia), pitted morningglory (Ipomoea lacunosa), purple nutsedge (Cyperus rotundus), common ragweed (Ambrosia elation), mustard (Brassica nigra), guineagrass (Panicum maximum), […] (Paspalum dilatatum), barnyardgrass (Echinochloa crus-galli), southern sandbur (Cenchrus echinatus), common sowthistle (Sonchus oleraceous), prickly […] spinosa), Italian ryegrass (Lolium multiflorum), common purslane (Portulaca oleracea), broadleaf signalgrass (Brachiaria platyphylla), common groundsel (Senecio vulgaris), common chickweed (Stellaria media), Virginia dayflower (Commelina virginica), annual bluegrass (Poa annua), naked crabgrass (Digitaria nuda), […] cochinchinensis), quackgrass (Elytrigia repens), Canada horseweed (Conyza canadensis), field bindweed (Convolvulus arvensis), […] (Bidens bipinnata), common mallow (Malva sylvestris), Russian thistle (Salsola kali), and sugarcane (Saccharum officinarum) were planted and treated preemergence with test chemicals formulated in a non-phytotoxic solvent mixture which included a surfactant. At a different time, sugarcane was treated with postemergence applications of some of the test chemicals formulated in the same manner. Plants were approximately 3- to 4-leaf stage for the postemergence treatments. Treated plants and controls were maintained in a greenhouse for 14 to 21 days, after which time all species were compared to controls and visually evaluated. […] A dash (-) response means no test result.

[2] = tested on: field bindweed; format: in vivo, Convolvulus arvensis; details: scale 0 to 100
Source text: as §1

[3] = tested on: common mallow; format: in vivo, Malva sylvestris; details: scale 0 to 100
Source text: as §1

[4] = tested on: barnyardgrass; format: in vivo, Echinochloa crus-galli
Source text: as §1

[5] = tested on: common purslane; format: in vivo, Portulaca oleracea; details: scale 0 to 100
Source text: as §1

[6] = tested on: itchgrass; format: in vivo, Rottboellia cochinchinensis; details: scale 0 to 100
Source text: as §1

[7] = tested on: mustard; format: in vivo, Brassica nigra; details: scale 0 to 100
Source text: as §1

[8] = tested on: quackgrass; format: in vivo, Elytrigia repens; details: scale 0 to 100
Source text: as §1

[9] = tested on: green foxtail; format: in vivo, Setaria viridis; details: scale 0 to 100
Source text: as §1

[10] = tested on: dallisgrass; format: in vivo, Paspalum dilatatum; details: scale 0 to 100
Source text: as §1

[11] = tested on: southern sandbur; format: in vivo, Cenchrus echinatus; details: scale 0 to 100
Source text: as §1

[12] = tested on: guineagrass; format: in vivo, Panicum maximum; details: scale 0 to 100
Source text: as §1

[13] = tested on: common groundsel; format: in vivo, Senecio vulgaris; details: scale 0 to 100
Source text: as §1

[14] = 62 g ai/ha, Preemergence, scale 0 to 100
[15] = 125 g ai/ha, preemergence, scale 0 to 100
[16] = Preemergence, 31 g ai/ha, scale 0 to 100

## Cn1nc(C(F)(F)F)c(CS(=O)(=O)c2cccc[n+]2[O-])c1OCC(F)(F)F [Compound 29]
[1]; 62 g ai/ha, Preemergence
  Prickly Sida plant response rating: 95
[1]; 125 g ai/ha, preemergence
  Prickly Sida plant response rating: 100
[1]; Preemergence, 16 g ai/ha
  Plant response rating, Prickly Sida: 40
[1]; Preemergence, 31 g ai/ha
  Plant response rating, Prickly Sida: 95
[2]; 62 g ai/ha, Preemergence
  Field Bindweed plant response rating: 0
[2]; 125 g ai/ha, preemergence
  Field Bindweed plant response rating: 0
[2]; Preemergence, 16 g ai/ha
  Plant response rating, Field Bindweed: 0
[2]; Preemergence, 31 g ai/ha
  Plant response rating, Field Bindweed: 0
[3]; 62 g ai/ha, Preemergence
  Mallow plant response rating: 100
[3]; 125 g ai/ha, preemergence
  Mallow plant response rating: 100
[3]; Preemergence, 16 g ai/ha
  Plant response rating, Mallow: 0
[3]; Preemergence, 31 g ai/ha
  Plant response rating, Mallow: 0
[4]; [14]
  Barnyardgrass plant response rating: 100
[4]; [15]
  Barnyardgrass plant response rating: 100
[4]; Preemergence, 16 g ai/ha, scale 0 to 100
  Plant response rating, Barnyardgrass: 50
[4]; [16]
  Plant response rating, Barnyardgrass: 100
[5]; 62 g ai/ha, Preemergence
  Purslane plant response rating: 30
[5]; 125 g ai/ha, preemergence
  Purslane plant response rating: 30
[5]; Preemergence, 16 g ai/ha
  Plant response rating, Purslane: 0
[5]; Preemergence, 31 g ai/ha
  Plant response rating, Purslane: 0
[6]; 62 g ai/ha, Preemergence
  Itchgrass plant response rating: 75
[6]; 125 g ai/ha, preemergence
  Itchgrass plant response rating: 95
[6]; Preemergence, 16 g ai/ha
  Plant response rating, Itchgrass: 0
[6]; Preemergence, 31 g ai/ha
  Plant response rating, Itchgrass: 30
[7]; 62 g ai/ha, Preemergence
  Black Mustard plant response rating: 100
[7]; 125 g ai/ha, preemergence
  Black Mustard plant response rating: 100
[7]; Preemergence, 16 g ai/ha
  Plant response rating, Black Mustard: 40
[7]; Preemergence, 31 g ai/ha
  Plant response rating, Black Mustard: 100
[8]; 62 g ai/ha, Preemergence
  Quackgrass plant response rating: 95
[8]; 125 g ai/ha, preemergence
  Quackgrass plant response rating: 95
[8]; Preemergence, 16 g ai/ha
  Plant response rating, Quackgrass: 0
[8]; Preemergence, 31 g ai/ha
  Plant response rating, Quackgrass: 30
[9]; 62 g ai/ha, Preemergence
  Foxtail, Green plant response rating: 100
[9]; 125 g ai/ha, preemergence
  Foxtail, Green plant response rating: 100
[9]; Preemergence, 16 g ai/ha
  Plant response rating, Foxtail, Green: 25
[9]; Preemergence, 31 g ai/ha
  Plant response rating, Foxtail, Green: 75
[10]; 62 g ai/ha, Preemergence
  Dallisgrass plant response rating: 100
[10]; 125 g ai/ha, preemergence
  Dallisgrass plant response rating: 100
[10]; Preemergence, 16 g ai/ha
  Plant response rating, Dallisgrass: 0
[10]; Preemergence, 31 g ai/ha
  Plant response rating, Dallisgrass: 100
[11]; 62 g ai/ha, Preemergence
  Sandbur plant response rating: 100
[11]; 125 g ai/ha, preemergence
  Sandbur plant response rating: 100
[11]; Preemergence, 31 g ai/ha
  Plant response rating, Sandbur: 100
[12]; 62 g ai/ha, Preemergence
  Guineagrass plant response rating: 100
[12]; 125 g ai/ha, preemergence
  Guineagrass plant response rating: 100
[12]; Preemergence, 16 g ai/ha
  Plant response rating, Guineagrass: 90
[12]; Preemergence, 31 g ai/ha
  Plant response rating, Guineagrass: 100

## Cc1cc([S+]([O-])Cc2c(C(F)(F)F)nn(C)c2OCC(F)(F)F)[n+]([O-])cc1Cl (stereo not drawn) [Compound 70]
[1]; 16 g ai/ha, preemergence
  Plant response rating, Prickly Sida: 60
[1]; 62 g ai/ha, Preemergence
  Prickly Sida plant response rating: 90
[1]; 125 g ai/ha, preemergence
  Prickly Sida plant response rating: 90
[1]; Preemergence, 31 g ai/ha
  Plant response rating, Prickly Sida: 80
[2]; 16 g ai/ha, preemergence
  Plant response rating, Field Bindweed: 40
[2]; 62 g ai/ha, Preemergence
  Field Bindweed plant response rating: 40
[2]; 125 g ai/ha, preemergence
  Field Bindweed plant response rating: 40
[2]; Preemergence, 31 g ai/ha
  Plant response rating, Field Bindweed: 40
[13]; 62 g ai/ha, Preemergence
  Groundsel plant response rating: 98
[13]; 125 g ai/ha, preemergence
  Groundsel plant response rating: 100
[13]; Preemergence, 31 g ai/ha
  Plant response rating, Groundsel: 98
[4]; 16 g ai/ha, preemergence, scale 0 to 100 (0 no effect, 100 complete control)
  Plant response rating, Barnyardgrass: 60
[4]; [14]
  Barnyardgrass plant response rating: 95
[4]; [15]
  Barnyardgrass plant response rating: 100
[4]; [16]
  Plant response rating, Barnyardgrass: 70
[5]; 62 g ai/ha, Preemergence
  Purslane plant response rating: 75
[5]; 125 g ai/ha, preemergence
  Purslane plant response rating: 75
[5]; Preemergence, 31 g ai/ha
  Plant response rating, Purslane: 35
[6]; 16 g ai/ha, preemergence
  Plant response rating, Itchgrass: 80
[6]; 62 g ai/ha, Preemergence
  Itchgrass plant response rating: 80
[6]; 125 g ai/ha, preemergence
  Itchgrass plant response rating: 100
[6]; Preemergence, 31 g ai/ha
  Plant response rating, Itchgrass: 80
[7]; 16 g ai/ha, preemergence
  Plant response rating, Black Mustard: 90
[7]; 62 g ai/ha, Preemergence
  Black Mustard plant response rating: 100
[7]; 125 g ai/ha, preemergence
  Black Mustard plant response rating: 100
[7]; Preemergence, 31 g ai/ha
  Plant response rating, Black Mustard: 90
[8]; 16 g ai/ha, preemergence
  Plant response rating, Quackgrass: 75
[8]; 62 g ai/ha, Preemergence
  Quackgrass plant response rating: 95
[8]; 125 g ai/ha, preemergence
  Quackgrass plant response rating: 100
[8]; Preemergence, 31 g ai/ha
  Plant response rating, Quackgrass: 75
[9]; 62 g ai/ha, Preemergence
  Foxtail, Green plant response rating: 75
[9]; 125 g ai/ha, preemergence
  Foxtail, Green plant response rating: 90
[9]; Preemergence, 31 g ai/ha
  Plant response rating, Foxtail, Green: 65
[10]; 62 g ai/ha, Preemergence
  Dallisgrass plant response rating: 75
[10]; 125 g ai/ha, preemergence
  Dallisgrass plant response rating: 98
[10]; Preemergence, 31 g ai/ha
  Plant response rating, Dallisgrass: 25
[11]; 16 g ai/ha, preemergence
  Plant response rating, Sandbur: 65
[11]; 125 g ai/ha, preemergence
  Sandbur plant response rating: 100
[11]; Preemergence, 62 g ai/ha
  Plant response rating, Sandbur: 75
[12]; 16 g ai/ha, preemergence
  Plant response rating, Guineagrass: 100
[12]; 62 g ai/ha, Preemergence
  Guineagrass plant response rating: 100
[12]; 125 g ai/ha, preemergence
  Guineagrass plant response rating: 100
[12]; Preemergence, 31 g ai/ha
  Plant response rating, Guineagrass: 100
